Reference: ChEMBL document CHEMBL1131700, “Synthesis and biological evaluation of novel cryptophycin analogs with modification in the beta-alanine region” (Bioorg Med Chem Lett, 1999)

Experiments:
Homo sapiens = species on record: Homo sapiens; assay: Antiproliferative activity was evaluated by the 72 hr MTT cell viability assay using human colon carcinoma cells (GC3).; format: functional
Mus musculus = species on record: Mus musculus; assay: Compound was tested for its antitumor activity in murine pancreatic adenocarcinoma PO3 model at the maximum tolerated dose(MTD); format: functional

## COc1ccc(C[C@H]2NC(=O)/C=C/C[C@@H]([C@H](C)[C@H]3O[C@@H]3c3ccccc3)OC(=O)[C@H](CC(C)C)OC(=O)C[C@@H](C)NC2=O)cc1Cl (stereo in doubt; 12b)
Homo sapiens; mtt
  IC50: 0.03 nM

## COc1ccc(C[C@H]2NC(=O)/C=C/C[C@@H]([C@H](C)[C@H]3O[C@@H]3c3ccccc3)OC(=O)[C@H](CC(C)C)OC(=O)C[C@@H](C)NC2=O)cc1Cl (stereo in doubt; 12a)
Homo sapiens; mtt
  IC50: 0.4 nM

## COc1ccc(C[C@H]2NC(=O)/C=C/C[C@@H]([C@H](C)[C@H]3O[C@@H]3c3ccccc3)OC(=O)[C@H](CC(C)C)OC(=O)[C@H](C)NC2=O)cc1Cl
Homo sapiens; Homo sapiens, MTT, 72 h
  IC50: 13 nM

## COc1ccc(C[C@H]2NC(=O)/C=C/C[C@@H]([C@H](C)[C@H]3O[C@@H]3c3ccccc3)OC(=O)[C@H](CC(C)C)OC(=O)[C@H](CC(C)C)NC2=O)cc1Cl
Homo sapiens; Homo sapiens, MTT, 72 h
  IC50: 320 nM

## COc1ccc(C[C@H]2NC(=O)/C=C/C[C@@H]([C@H](C)[C@H]3O[C@@H]3c3ccccc3)OC(=O)[C@H](CC(C)C)OC(=O)[C@@H]3CCCN3C2=O)cc1Cl
Homo sapiens; Homo sapiens, MTT, 72 h
  IC50: > 1500 nM

## COc1ccc(C[C@H]2NC(=O)/C=C/C[C@@H]([C@H](C)[C@H]3O[C@@H]3c3ccccc3)OC(=O)[C@H](CC(C)C)OC(=O)C[C@@H](CC(C)C)NC2=O)cc1Cl
Homo sapiens; Homo sapiens, MTT, 72 h
  IC50: 3 nM

## COc1ccc(C[C@H]2NC(=O)/C=C/C[C@@H]([C@H](C)[C@H]3O[C@@H]3c3ccccc3)OC(=O)[C@H](CC(C)C)OC(=O)[C@H](C(C)C)NC2=O)cc1Cl
Homo sapiens; Homo sapiens, MTT, 72 h
  IC50: 306 nM

## COc1ccc(C[C@H]2NC(=O)/C=C/C[C@@H]([C@H](C)[C@H]3O[C@@H]3c3ccccc3)OC(=O)[C@H](CC(C)C)OC(=O)C[C@@H](c3ccccc3)NC2=O)cc1Cl
Homo sapiens; Homo sapiens, MTT, 72 h
  IC50: 0.94 nM

## COc1ccc(C[C@H]2NC(=O)/C=C/C[C@@H]([C@H](C)[C@H]3O[C@@H]3c3ccccc3)OC(=O)[C@H](CC(C)C)OC(=O)C[C@@H](Cc3ccccc3)NC2=O)cc1Cl
Homo sapiens; Homo sapiens, MTT, 72 h
  IC50: 5.2 nM

## COc1ccc(C[C@H]2NC(=O)/C=C/C[C@@H]([C@H](C)[C@H]3O[C@@H]3c3ccccc3)OC(=O)[C@H](CC(C)C)OC(=O)[C@H](Cc3ccccc3)NC2=O)cc1Cl
Homo sapiens; Homo sapiens, MTT, 72 h
  IC50: 1000 nM

## COc1ccc(C[C@H]2NC(=O)/C=C/C[C@@H]([C@H](C)[C@H]3O[C@@H]3c3ccccc3)OC(=O)[C@H](CC(C)C)OC(=O)[C@H](C)CNC2=O)cc1Cl [CRYPTOPHYCIN A]
Homo sapiens; Homo sapiens, MTT, 72 h
  IC50: 0.24 nM
Mus musculus
  T/C: < 5%

## COc1ccc(C[C@H]2NC(=O)/C=C/C[C@@H]([C@H](C)[C@H]3O[C@@H]3c3ccccc3)OC(=O)[C@H](CC(C)C)NC(=O)C[C@@H](C)NC2=O)cc1Cl
Homo sapiens; Homo sapiens, MTT, 72 h
  IC50: 0.06 nM

## COc1ccc(C[C@H]2NC(=O)/C=C/C[C@@H]([C@H](C)[C@H]3O[C@@H]3c3ccccc3)OC(=O)[C@H](CC(C)C)OC(=O)c3ccccc3NC2=O)cc1Cl
Homo sapiens; Homo sapiens, MTT, 72 h
  IC50: 870 nM

## COc1ccc(C[C@H]2NC(=O)/C=C/C[C@@H]([C@H](C)[C@H]3O[C@@H]3c3ccccc3)OC(=O)[C@H](CC(C)C)OC(=O)[C@@H]3CCCCC3NC2=O)cc1Cl (some centres not stated)
Homo sapiens; Homo sapiens, MTT, 72 h
  IC50: 1.3 nM

## COc1ccc(C[C@H]2NC(=O)/C=C/C[C@@H]([C@H](C)[C@H]3O[C@@H]3c3ccccc3)OC(=O)[C@H](CC(C)C)OC(=O)C(C)(C)CNC2=O)cc1Cl [CRYPTOPHYCIN 52]
Homo sapiens; Homo sapiens, MTT, 72 h
  IC50: 0.2 nM
Mus musculus
  T/C: < 5%
